ChEMBL document CHEMBL1201862, “PubChem BioAssay data set” (2004)
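Cells were grown in 96-well plates and exposed to each compound for 48 hours at five concentrations; endpoints were interpolated linearly between bracketing concentrations, or set to the highest concentration if not reached. GI50 is the concentration that inhibits growth by half.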 Calls of active or inactive are those of the source. Cut-off read from the data, not from the text of the source: active = GI50 up to about 1.1 µM and inactive = higher.

Key:
Test in all cases: inhibition of tumour cell growth, NCI panel, 48 h
UACC-257 = tested on: UACC-257
SK-MEL-28 = tested on: SK-MEL-28
SF-539 = tested on: SF-539
KM12 = tested on: KM12
BT-549 = tested on: BT-549
MDA-N = tested on: MDA-N
EKVX = tested on: EKVX
HOP-92 = tested on: HOP-92
ACHN = tested on: ACHN
MDA-MB-435 = tested on: MDA-MB-435
NCI-H522 = tested on: NCI-H522
LOX IMVI = tested on: LOX IMVI
SF-295 = tested on: SF-295
IGROV-1 = tested on: IGROV-1
SF-268 = tested on: SF-268
OVCAR-8 = tested on: OVCAR-8
HOP-62 = tested on: HOP-62
786-0 = tested on: 786-0
T47D = tested on: T47D
SK-MEL-2 = tested on: SK-MEL-2
CCRF-CEM = tested on: CCRF-CEM
OVCAR-4 = tested on: OVCAR-4
DU-145 = tested on: DU-145
SR = tested on: SR
K562 = tested on: K562
MOLT-4 = tested on: MOLT-4
A549 = tested on: A549
OVCAR-5 = tested on: OVCAR-5
HL-60 = tested on: HL-60
HT-29 = tested on: HT-29
RXF 393 = tested on: RXF 393
CAKI-1 = tested on: CAKI-1
SK-MEL-5 = tested on: SK-MEL-5
MCF7 = tested on: MCF7
PC-3 = tested on: PC-3
NCI-H23 = tested on: NCI-H23
M14 = tested on: M14
NCI/ADR-RES = tested on: NCI/ADR-RES
UO-31 = tested on: UO-31
UACC-62 = tested on: UACC-62
SNB-75 = tested on: SNB-75
OVCAR-3 = tested on: OVCAR-3
Malme-3M = tested on: Malme-3M
Hs-578T = tested on: Hs-578T
HCT-116 = tested on: HCT-116
SNB-19 = tested on: SNB-19
A498 = tested on: A498
SN12C = tested on: SN12C
RPMI-8226 = tested on: RPMI-8226
SK-OV-3 = tested on: SK-OV-3
HCC 2998 = tested on: HCC 2998
HCT-15 = tested on: HCT-15
COLO 205 = tested on: COLO 205
SW-620 = tested on: SW-620

In the case of COc1c(CC=C(C)C)c(O)c(C(CC(C)C)c2c(O)c3c(c(C(C)=O)c2O)OC(C(C)(C)O)C3)c(O)c1C(C)=O (centres undefined), the GI50 (UACC-257) is reported as 4.18 µM (inactive), the GI50 (SK-MEL-28) is reported as 6.12 µM (inactive) and the GI50 (SF-539) is reported as 4.24 µM (inactive). For the same compound, the GI50 (KM12) was 3.7 µM (inactive), the GI50 (BT-549) was 3 µM (inactive) and the GI50 (MDA-N) was 4.05 µM (inactive). For the same compound, the GI50 (EKVX) was 3.76 µM (inactive), the GI50 (HOP-92) was 2.71 µM (inactive) and the GI50 (ACHN) was 4.42 µM (inactive). For the same compound, the GI50 (MDA-MB-435) was 4.63 µM (inactive), the GI50 (NCI-H522) was 3.42 µM (inactive) and the GI50 (LOX IMVI) was 4.78 µM (inactive). The GI50 (SF-295) was 4.55 µM (inactive), the GI50 (IGROV-1) was 5.07 µM (inactive) and the GI50 (SF-268) was 4.53 µM (inactive). For the same compound, the GI50 (OVCAR-8) was 4.4 µM (inactive), the GI50 (HOP-62) was 5.2 µM (inactive) and the GI50 (786-0) was 5.65 µM (inactive). The GI50 (T47D) was 3.46 µM (inactive), the GI50 (SK-MEL-2) was 4.15 µM (inactive) and the GI50 (CCRF-CEM) was 2.58 µM (inactive). For the same compound, the GI50 (OVCAR-4) was 4.57 µM (inactive), the GI50 (DU-145) was 4.54 µM (inactive) and the GI50 (SR) was 2.17 µM (inactive). The GI50 (K562) was 2.6 µM (inactive), the GI50 (MOLT-4) was 1.74 µM (inactive) and the GI50 (A549) was 4.21 µM (inactive). For the same compound, the GI50 (OVCAR-5) was 6.93 µM (inactive), the GI50 (HL-60) was 3.52 µM (inactive) and the GI50 (HT-29) was 4.86 µM (inactive). The GI50 (RXF 393) was 3.67 µM (inactive), the GI50 (CAKI-1) was 3.93 µM (inactive) and the GI50 (SK-MEL-5) was 2.22 µM (inactive). For the same compound, the GI50 (MCF7) was 3.61 µM (inactive), the GI50 (PC-3) was 3.15 µM (inactive) and the GI50 (NCI-H23) was 2.63 µM (inactive). The GI50 (M14) was 6.05 µM (inactive), the GI50 (NCI/ADR-RES) was 3.44 µM (inactive) and the GI50 (UO-31) was 4.32 µM (inactive). The GI50 (UACC-62) was 4.94 µM (inactive), the GI50 (SNB-75) was 4.92 µM (inactive) and the GI50 (OVCAR-3) was 6.08 µM (inactive). For the same compound, the GI50 (Malme-3M) was 3.91 µM (inactive), the GI50 (Hs-578T) was 3.94 µM (inactive) and the GI50 (HCT-116) was 3.64 µM (inactive). The GI50 (SNB-19) was 5.09 µM (inactive), the GI50 (A498) was 3.84 µM (inactive) and the GI50 (SN12C) was 3.93 µM (inactive). For the same compound, the GI50 (RPMI-8226) was 0.968 µM (active), the GI50 (SK-OV-3) was 5.46 µM (inactive) and the GI50 (HCC 2998) was 3.63 µM (inactive). The GI50 (HCT-15) was 3.64 µM, the GI50 (COLO 205) was 3.21 µM (inactive) and the GI50 (SW-620) was 4.62 µM (inactive).
